Common to all, as to type: biochemical
Assay [1] concerns mammalian vacuolar-type (H+)-ATPase (from chromaffin granule membranes). The experiment in a line: mammalian vacuolar-type (H+)-ATPase inhibition, side-by-side test. The note with it: mammalian versus fungal enzyme. From the text:
The inhibitory data were obtained using the same procedures and biological preparations described in Bowman et al., Proc. Natl. Acad. Sci. USA, 85, 7972-7976 (November 1988).

Assay [2] has as its system vacuolar-type (H+)-ATPase derived from macrophage cells (J774). Description: vacuolar-type (H+)-ATPase inhibition assay, membrane vesicles (J774). Conditions: bafilomycin-sensitive activity; oligomycin 5 μg/ml and vanadate 1 mM present; 37°, 30 minutes. The protocol: (§1) Inhibition of bafilomycin-sensitive vacuolar-type (H+)-ATPase activity was measured in partially purified membrane vesicle preparations from human osteoclastoma cells (hOc), human renal cortical cells (hK), and macrophage cells (J774). The vesicles were prepared by appropriate adaptations of methods described in Gagliardi et al., J. Med. Chem., 41, 1568-1573 (1998); and Gagliardi et al., J. Med. Chem., 41, 1883-1893 (1998).
(§2) Vacuolar-type (H+)-ATPase assays were performed in the presence of oligomycin (5 μg/ml) and vanadate (1 mM) as inhibitors of F- and P-ATPases, respectively. A […] method was used to quantitate the residual bafilomycin-sensitive vacuolar-type (H+)-ATPase activity (see Chan et al., Anal. Biochem., 157, 375-380 (1986)). The assay measures the release of inorganic phosphate from ATP at 37° during 30 minutes of incubation. The reaction is initiated by the addition of MgSO4 ([…]).

Assay [3] has as its system vacuolar-type (H+)-ATPase derived from human kidney cells (hK). The experiment in a line: vacuolar-type (H+)-ATPase inhibition assay, membrane vesicles (hK). Conditions: bafilomycin-sensitive activity; oligomycin 5 μg/ml and vanadate 1 mM present; 37°, 30 minutes. As to the method: as §1, §2

With `CO/N=C/C=C\C(=O)N/C=C/CC1CC(=O)OC(C)/C=C/C(O)/C(C)=C\Cc2cccc(O)c2C(=O)O1` (stereo not drawn) [lobatamide A], the “selectivity for mammalian versus fungal vacuolar-type (H+)-ATPase” value in assay [1] is “highly selective”. The 50% inhibitory concentration (IC50) (commonly the concentration needed to halve the response being measured) in assay [2] came out at 2.8 nM; in assay [3], 1.8 nM.

For the origin of these results see patent publication US7381744B1, “Method of treating osteoporosis comprising vacuolar-type (H+)-ATPase-inhibiting compounds” (The United States of America as represented by the …, priority 1999, dated 2008).
